Source: patent US8026378B2, “Glyceryl ether compounds and their use” (Segetis, Inc., priority 2005, dated 2011)

Experiment: Emulsifying properties: hexane/water emulsions
Assay type: physicochemical
Settings: for emulsifying properties on addition of salt: addition of 0.2% calcium chloride or magnesium chloride, mixture of isomers; for stability of emulsions of water in hexane: aqueous solutions of the mixture of isomers
From the text: […] The emulsifying properties of compounds (12a) and (12b) were not disrupted by the addition of 0.2% calcium chloride or magnesium chloride.

Row | Compound | emulsifying properties on addition of salt | stability of emulsions of water in hexane
1 | CCCCCCCCC(O)COCC(O)CO (stereo not drawn) [Compound 12a] | not disrupted | 
2 | CCCCCCCCC(CO)OCC(O)CO (stereo not drawn) [Compound 12b] | not disrupted | 
3 | CCCCCCCCCCCCCCCCC(O)COCC(O)CO (stereo not drawn) [Compound 13a] | not substantially disrupted | able to support stability of emulsions of water in hexane
4 | CCCCCCCCCCCCCCCCC(CO)OCC(O)CO (stereo not drawn) [Compound 13b] | not substantially disrupted | able to support stability of emulsions of water in hexane
